Test results: article PMC8232621, “Antimicrobial Activity of a Library of Thioxanthones and Their Potential as Efflux Pump Inhibitors” (Pharmaceuticals, 2021)
Read-outs that look alike come from different tables or passages of the source.

Experiments:
E. coli ATCC 25922 = assay: Antibacterial activity, broth microdilution MIC; type: cell-based; conditions: Escherichia coli, ATCC25922, read-out: Minimum Inhibitory Concentration (MIC)
Text: (§1) The referred library of thioxanthones was initially tested for their antimicrobial activity against six bacterial strains: the Gram-negative Escherichia coli ATCC 25922, Pseudomonas aeruginosa ATCC 27853 and Salmonella enterica serovar Typhimurium SL1344 (SE03), with the acrA gene deleted, and the Gram-positive Staphylococcus aureus ATCC 29213, Enterococcus faecalis ATCC 29212 and the methicillin and ofloxacin-resistant clinical isolate S. aureus 272123. For the synergy assay, two clinically relevant isolates were used: the extended-spectrum β-lactamase (ESBL)-producing E. coli SA/2 [23] and the vancomycin-resistant E. faecalis (VRE) B3/101 [23]. The antibiotics used were cefotaxime (CTX) and vancomycin (VAN), respectively.
(§2) The minimum inhibitory concentration (MIC) for each compound was determined by broth microdilution method in a 96-well plate according to the Clinical and Laboratory Standard Institute (CLSI) guidelines. The medium used was MHB II. The concentrations tested ranged from 100 µM to 0.195 µM and were prepared from a stock solution of 10 mM in DMSO, for S. aureus 272123 and SE03; for the other strains, the concentrations tested ranged from 64 µg/mL to 4 µg/mL and were prepared from a stock solution of 10 mg/mL in DMSO. DMSO was used in subinhibitory concentrations (1% v/v). The MIC was determined by visual inspection.

E. faecalis ATCC 29212 = assay: Antibacterial activity, broth microdilution MIC; type: cell-based; conditions: Enterococcus faecalis
Text: as §1, §2

P. aeruginosa ATCC 27853 = assay: Antibacterial activity, broth microdilution MIC; type: cell-based; conditions: Pseudomonas aeruginosa, ATCC27853, read-out: Minimum Inhibitory Concentration (MIC)
Text: as §1, §2

S. aureus 272123 [1] = assay: Antibacterial activity, broth microdilution MIC; type: cell-based; conditions: Staphylococcus aureus, 272123, read-out: Minimum Inhibitory Concentration (MIC)
Text: as §1, §2

S. aureus ATCC 29213 = assay: Antibacterial activity, broth microdilution MIC; type: cell-based; conditions: Staphylococcus aureus
Text: as §1, §2

SE03 = assay: Antibacterial activity, broth microdilution MIC; type: cell-based, Salmonella enterica serovar Typhimurium SL1344; conditions: Salmonella enterica, read-out: Minimum Inhibitory Concentration (MIC)
Text: as §1, §2

S. aureus 272123 [2] = assay: Real-time ethidium bromide accumulation assay (efflux pump inhibition); type: cell-based, Staphylococcus aureus; design: key: RFI = (RFtreated − RFuntreated)/RFuntreated at minute 60; conditions: compounds 50 µM, reserpine 25 µM, minute 60, EB 1 µg/mL
Method: The relative fluorescence index (RFI) was calculated based on the means of relative fluorescence units, and theses RFIs are depicted in Table 4.
The compounds were evaluated for their ability to inhibit the efflux of EB, an efflux pump substrate, in Salmonella enterica serovar Typhimurium SE03 and S. aureus 272123 strains, through real-time fluorimetry, monitoring the intracellular accumulation of EB, an efflux pump substrate. This was determined by the automated method using a CLARIOstar Plus plate reader (BMG Labtech, Ortenberg, Germany). Reserpine and CCCP were applied at 25 µM as positive controls, and the solvent DMSO was applied at 1% v/v. The bacterial strains were incubated in an appropriate culture media (TSB–S. aureus 272123; LB-B–SE03) at 37 °C until they reached an optical density (OD) of 0.6 at 600 nm. The culture was centrifuged at 13,000× g for 3 min, and the pellet was washed and resuspended with phosphate buffered saline (PBS, pH 7.4). The suspension was centrifuged again in the same conditions and resuspended in PBS.
Then, 50 µL of this solution were transferred into a 96-well black microtiter plate (Greiner Bio-One Hungary Kft, Mosonmagyaróvár, Fertősor, Hungary), and 50 µL of bacterial suspension (OD600 = 0.6) were added to each well. The plates were placed into the CLARIOstar plate reader, and the fluorescence was monitored at excitation and emission wavelengths of 530 nm and 600 nm, respectively, every minute for one hour on a real-time basis. From the real-time data, the activity of the compounds, namely the relative fluorescence index (RFI) of the last time point (minute 60) of the EB accumulation assay, was calculated according to the following equation:(1) RFI=RFtreated−RFuntreated/RFuntreated where RFtreated is the relative fluorescence (RF) at the last time point of EB accumulation curve in the presence of the compound, and RFuntreated is the RF at the last time point of the EB accumulation curve of the untreated control, having only the solvent (DMSO) control. The accumulation curves were designed using Microsoft Excel®. The samples were tested in triplicate, and the RFI presented comes from the average of these three values. The accumulation graphs present the mean of the RF at the last time point. The standard deviation (SD) was calculated automatically and included in the RF graphs.

wt85 = assay: Quorum sensing inhibition assay (pigment production); type: cell-based, Chromobacterium violaceum wild-type 85; conditions: Chromobacterium violaceum, read-out: Quorum Sensing Inhibition (mm) ± SD
Method: (§3) Concerning the QS inhibition assay, the sensor strain Chromobacterium violaceum CV026 and the AHL producer strain Sphingomonas paucimobilis Ezf 10-17 (EZF) were inoculated as parallel lines, and the AHL producers Chromobacterium violaceum wild-type 85 (wt85) and Serratia marcescens AS-1 were inoculated as a single line. The interaction between the strains and compounds 2–18 was evaluated as the reduction of pigment production, in millimeters (mm) (Table 5) with promethazine (PMZ) as a positive control.
(§4) The QS inhibitory effect of the compounds was examined on the EZF and the sensor CV026 strains, on the wt85 strain, and on S. marcescens. The method used was the parallel inoculation method, where pair combinations of the used sensor strain CV026 and the N-acyl-homoserine lactone (AHL) producing strain EZF were inoculated directly onto the LB*-A agar surface in parallel, at an approximate distance of 5 mm from each other. S. marcescens AS-1 and wt85 were inoculated as a single line. Filter paper disks (7 mm in diameter) were placed on the center of the inoculated line(s) and impregnated with 8 µL of a solution of 10 mM of the compounds. […] The agar plates were incubated at room temperature (20 °C) for 24−48 h. The QS inhibition was accessed visually, through the inhibition of pigment production. The discolored, but intact, bacterial colonies were measured with a ruler.

EZF + CV026 = assay: Quorum sensing inhibition assay (pigment production), parallel inoculation; type: cell-based; conditions: disk with 8 µL of 10 mM solution, read-out: Quorum Sensing Inhibition (mm) ± SD
Method: as §3, §4

[3] = ATCC29212, E. faecalis ATCC 29212, read-out: Minimum Inhibitory Concentration (MIC)
[4] = ATCC29213, S. aureus ATCC 29213, read-out: Minimum Inhibitory Concentration (MIC)

Compound | MIC (E. coli ATCC 25922) [µM] | MIC (E. faecalis ATCC 29212; ATCC29212, read-out: Minimum Inhibitory Concentration (MIC)) [µM] | MIC (E. faecalis ATCC 29212; [3]) | MIC (P. aeruginosa ATCC 27853) [µM] | MIC (S. aureus 272123 [1]) [µM] | MIC (S. aureus ATCC 29213; ATCC29213, read-out: Minimum Inhibitory Concentration (MIC)) [µM] | MIC (S. aureus ATCC 29213; [4]) | MIC (SE03) [µM] | RFI ± SD (S. aureus 272123 [2]) | zone of inhibition at 10000 µM (wt85) [mm] | zone of inhibition at 10000 µM (EZF + CV026) [mm]
CCCOc1ccc(NS(=O)(=O)c2ccc(C(=O)O)cc2)c2c(=O)c3ccccc3sc12 [Compound 12, 4-[N-(9-Oxo-4-propoxy-9H-thioxanthen-1-yl)sulfamoyl]benzoic acid] | > 100 | 34 | 16 µg/mL | > 100 | > 100 | 34 | 16 µg/mL | 50 | 0.29 ± 0.19 | 0 | 0
CCCOc1ccc(NS(=O)(=O)c2ccc(N)cc2)c2c(=O)c3ccccc3sc12 [Compound 13, 4-Amino-N-(9-oxo-4-propoxy-9H-thioxanthen-1-yl)benzenesulfonamide] | > 100 |  | > 100 µM | > 100 | > 100 |  | > 100 µM | > 100 | −0.18 ± 0.05 | 0 | 51 ± 0.1
CCCOc1ccc(Br)c2c(=O)c3ccccc3sc12 [Compound 14, 1-Bromo-4-propoxy-9H-thioxanthen-9-one] | > 100 |  | > 100 µM | > 100 | > 100 |  | > 100 µM | > 100 | 1.13 ± 0.13 | 0 | 0
CCCOc1ccc2ncnc3c2c1Sc1ccccc1-3 [Compound 15] | > 100 |  | > 100 µM | > 100 | > 100 |  | > 100 µM | > 100 | −0.07 ± 0.50 | 0 | 50 ± 0.1
CCCOc1ccc2nc(N)nc3c2c1Sc1ccccc1-3 [Compound 16] | > 100 |  | > 100 µM | > 100 | > 100 |  | > 100 µM | > 100 | 0.96 ± 0.27 | 0 | 29 ± 0.8
CCCOc1ccc2nc(NCc3ccccc3Cl)nc3c2c1Sc1ccccc1-3 [Compound 17] | > 100 |  | > 100 µM | > 100 | > 100 |  | > 100 µM | > 100 | 9.69 ± 0.95 | 0 | 49 ± 0.5
CCCOc1ccc2c3c(n/c(=N\c4ccccc4C)n2-c2ccccc2C)-c2ccccc2Sc13 [Compound 18] | > 100 |  | > 100 µM | > 100 | > 100 |  | > 100 µM | > 100 | 0.20 ± 0.03 | 0 | 0
